Test results published in patent publication US6537974B2, “Method of treating arrhythmias” (CV Therapeutics, Inc., priority 2000, dated 2003).

Tests used:
[1] = in vivo; cited from earlier work
[2] = test system: AV node (AH interval); assay: Electrophysiology study: single intravenous bolus of CVT-510, effect on AH interval, heart rate, blood pressure; assay type: in vivo, human
Protocol: (§1) The effect of CVT-510 on prolongation of AH interval, a measure of an adenosine A1 mediated effect of CVT-510, and on the heart rate (sinus rate) of patients with PSVT was tested in patients undergoing a clinically indicated electrophysiology study. In the first study patients volunteers were administered a single bolus of. CVT-510. In the second study PSVT was induced in patients prior to the administration of CVT-510.
All antiarrhythmic agents, including digoxin, beta-blockers and calcium-channel blockers were discontinued for five half-lives prior to the study.
Patients were excluded from the study if the PR interval was >200 ms or resting heart rate was <60 or >100/min. Other exclusion criteria included evidence of ventricular preexcitation, Class II-IV congestive heart failure or asthma. Patients were also required to have normal baseline electrophysiologic parameters, including a paced AV nodal Wenckebach cycle length 500 ms, an AH interval between 60 and 125 ms and an HV interval 35-55 ms. All patients were 18 years of age.
Quadripolar catheters were introduced percutaneously and advanced under fluoroscopic guidance to the high right atrium and across the tricuspid annulus to record the His bundle potential. […] Data were stored on optical disk. All patients had continuous ECG and non-invasive blood pressure monitoring throughout the study.
Cardiac stimulation was performed with a programmable stimulator with an isolated constant-current source. Stimuli were delivered as rectangular pulses of 2 ms duration at four times diastolic threshold. The study design was open-label with dose escalation, with the latter determined by tolerability. A single intravenous bolus of CVT-510 was administered to each patient after baseline electrophysiologic measurements were made.
After a bolus dose of CVT-510 was given, blood pressure, heart rate, 12-lead ECG and AH and HV intervals were recorded at 1, 5, 10, 15, 20 and 30 min and then every 15 min for up to 1 hour post-bolus or until the parameters returned to baseline. The AH and HV intervals were determined by measuring the last interval during a 15 beat drive at a paced cycle length of 600, 500 and 400 ms (unless precluded by pacing-induced AV nodal Wenckebach).
Administration of CVT-510 started at a dose of 0.3 μg/kg. Dose escalation proceeded with additional groups of patients receiving doses of 1, 3, 7.5, 10, 15 and 30 μg/kg based on tolerability and the absence of AV nodal Wenckebach or 3° AV block during sinus rhythm.
Data are expressed as mean ±SD. Based on the results of the normality test, a paired t-test or a non-parametric signed-rank test (SR) was used to determine the significance of CVT-510's effects on heart rate, blood pressure, ECG and AV nodal conduction times (AH and HV) for each dosing group (e.g., 0.3, 1.0, 3.0, 7.5, 10.0, 15.0 and 30.0 μg/kg). Similarly, analysis of variance (ANOVA) or the Kruskal-Wallis test (KW) was used to compare the AH intervals during sinus rhythm and atrial pacing at all doses. No adjustment for multiple comparisons were made, and a P value <0.05 were used to determine the significance of the differences between mean values.

[3] = test system: patients with PSVT; assay: Treatment of patients with induced PSVT with CVT-510 boluses: conversion to sinus rhythm; assay type: in vivo, human; conditions: for % conversion after Bolus 1 / % conversion after Bolus 2 / % cumulative conversion: patients with PSVT
Protocol: as §1

[4] = molecular target: T1, A1 adenosine receptor (Homo sapiens, UniProt P30542); assay: Specificity for the A1 adenosine receptor: CPX antagonism, left ventricular pressure
T1 sequence (P30542 1-326): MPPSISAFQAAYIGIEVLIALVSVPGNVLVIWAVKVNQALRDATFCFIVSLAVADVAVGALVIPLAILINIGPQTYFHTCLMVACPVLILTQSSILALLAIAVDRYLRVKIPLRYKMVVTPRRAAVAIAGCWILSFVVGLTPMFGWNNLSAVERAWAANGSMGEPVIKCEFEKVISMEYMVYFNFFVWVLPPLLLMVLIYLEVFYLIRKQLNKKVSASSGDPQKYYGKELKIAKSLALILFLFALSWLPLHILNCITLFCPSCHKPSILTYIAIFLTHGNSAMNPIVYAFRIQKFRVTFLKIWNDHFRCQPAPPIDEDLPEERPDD

In the case of `C[C@H]1O[C@@H](O[C@H]2[C@@H](O)C[C@H](O[C@H]3[C@@H](O)C[C@H](O[C@H]4CC[C@@]5(C)[C@H](CC[C@@H]6[C@@H]5C[C@@H](O)[C@]5(C)[C@@H](C7=CC(=O)OC7)CC[C@]65O)C4)O[C@@H]3C)O[C@@H]2C)C[C@H](O)[C@@H]1O` [Digoxin], the “delayed onset of action” value [1] is listed as “about 30 min” and the “time to peak effects after administration” value [1] is listed as 3 to 4 h.
With `OC[C@H]1O[C@@H](n2cnc3c(N[C@@H]4CCOC4)ncnc32)[C@H](O)[C@@H]1O` [CVT-510, 6-(3-(R)-aminotetrahydrofuranyl)purine riboside] the “effect on AV nodal conduction” value ([2]; bolus doses 0.3-30 μg/kg, patients) was “slows AV nodal conduction in a dose-dependent manner”, the “time of maximal effect on the AH interval after dosing” value ([2]; dose of 7.5 μg/kg, human patients) was “one” and the “half-life compared with adenosine” value ([2]; in vivo) was “relatively long”. For the same compound, the “effect on sinus rate” value ([2]; patients) was “no effect”, the “effect on systemic blood pressure” value ([2]; patients) was “no effect” and the onset of action ([2]; post-administration) was at most 1 min. For the same compound, the “time by which effects were mostly eliminated” value ([2]; post-administration) was at most 20 min, the “% conversion after Bolus 1” value ([3]; Dose Level 3 (n = 4)) was 75% and the “% conversion after Bolus 2” value ([3]; Dose Level 3 (n = 4)) was 25%. For the same compound, the “% cumulative conversion” value ([3]; Dose Level 3 (n = 4)) was 100%, the “% conversion after Bolus 1” value ([3]; Dose Level 5 (n = 9)) was 78% and the “% conversion after Bolus 2” value ([3]; Dose Level 5 (n = 9)) was 0%. The “% cumulative conversion” value ([3]; Dose Level 5 (n = 9)) was 78%, the “% conversion after Bolus 1” value ([3]; Dose Level 7.5 (n = 4)) was 100% and the “% conversion after Bolus 2” value ([3]; Dose Level 7.5 (n = 4)) was 0%. The “% cumulative conversion” value ([3]; Dose Level 7.5 (n = 4)) was 100%, the “% conversion after Bolus 1” value ([3]; Dose Level 10 (n = 5)) was 90% and the “% conversion after Bolus 2” value ([3]; Dose Level 10 (n = 5)) was 0%. For the same compound, the “% cumulative conversion” value ([3]; Dose Level 10 (n = 5)) was 90%, the “% conversion after Bolus 1” value ([3]; Dose Level 12.5 (n = 4)) was 75% and the “% conversion after Bolus 2” value ([3]; Dose Level 12.5 (n = 4)) was 25%. The “% cumulative conversion” value ([3]; Dose Level 12.5 (n = 4)) was 100%, the “% conversion after Bolus 1” value ([3]; Dose Level 15 (n = 10)) was 80% and the “% conversion after Bolus 2” value ([3]; Dose Level 15 (n = 10)) was 10%. For the same compound, the “% cumulative conversion” value ([3]; Dose Level 15 (n = 10)) was 90%, the HV prolongation ([3]; at low concentrations) was “without causing” and the “depressing sinus or AV nodal conduction after restoring SR” value ([3]; at low concentrations) was “without causing”. The hypotension ([3]; at low concentrations) was “without causing”, the “termination of PSVT” value ([3]; at low concentrations) was “rapidly terminates PSVT” and the “effect on dpdt^−1 max” value [4] was “no effect”. The “effect on left ventricular pressure” value [4] was “no effect” and the “effects on the AV node in the presence of the selective A1 receptor antagonist CPX” value ([4]; with CPX, effects on coronary conductance not abolished) was “completely abolished”.
